Assay results reported in ChEMBL document CHEMBL4177608, “Design and synthesis of benzimidazole-based Rho kinase inhibitors for the treatment of glaucoma” (Bioorg Med Chem, 2017).
In brackets after ≈: the same amount, converted by molar mass.

Key:
[1] = 1-Octanol/water partition coefficient, log P of compound at 2 mg after 24 hrs by spectrophotometry based shake flask method; type: physicochemical
[2] = Antioxidant activity assessed as DPPH free radical scavenging activity at 5 ug/ml after 30 mins by spectrophotometric analysis; type: functional
[3] = Antioxidant activity assessed as DPPH free radical scavenging activity at 25 ug/ml after 30 mins by spectrophotometric analysis; type: functional
[4] = Antioxidant activity assessed as DPPH free radical scavenging activity at 50 ug/ml after 30 mins by spectrophotometric analysis; type: functional
[5] = Antioxidant activity assessed as DPPH free radical scavenging activity at 100 ug/ml after 30 mins by spectrophotometric analysis; type: functional
[6] = Antioxidant activity assessed as DPPH free radical scavenging activity at 150 ug/ml after 30 mins by spectrophotometric analysis; type: functional
[7] = Antioxidant activity assessed as DPPH free radical scavenging activity at 200 ug/ml after 30 mins by spectrophotometric analysis; type: functional
[8] = Antioxidant activity assessed as DPPH free radical scavenging activity after 30 mins by spectrophotometric analysis; type: functional
Rattus norvegicus [9] = species: Rattus norvegicus; assay: Reduction in intraocular pressure in Wistar rat model of dexamethasone-induced elevated IOP assessed as change in intraocular pressure at 1 % w/v after 0.5 hrs by tonometry (reference value: 0%); type: functional; parameters: scale not given: the % may be the effect or the level left
Rattus norvegicus [10] = species: Rattus norvegicus; assay: Reduction in intraocular pressure in Wistar rat model of dexamethasone-induced elevated IOP assessed as change in intraocular pressure at 1 % w/v after 1 hr by tonometry (reference value: 0%); type: functional; parameters: scale not given: the % may be the effect or the level left
Rattus norvegicus [11] = species: Rattus norvegicus; assay: Reduction in intraocular pressure in Wistar rat model of dexamethasone-induced elevated IOP assessed as change in intraocular pressure at 1 % w/v after 1.5 hrs by tonometry (reference value: 0%); type: functional; parameters: scale not given: the % may be the effect or the level left
Rattus norvegicus [12] = species: Rattus norvegicus; assay: Reduction in intraocular pressure in Wistar rat model of dexamethasone-induced elevated IOP assessed as change in intraocular pressure at 1 % w/v after 2 hrs by tonometry (reference value: 0%); type: functional; parameters: scale not given: the % may be the effect or the level left
Rattus norvegicus [13] = species: Rattus norvegicus; assay: Reduction in intraocular pressure in Wistar rat model of dexamethasone-induced elevated IOP assessed as change in intraocular pressure at 1 % w/v after 2.5 hrs by tonometry (reference value: 0%); type: functional; parameters: scale not given: the % may be the effect or the level left
Rattus norvegicus [14] = species: Rattus norvegicus; assay: Reduction in intraocular pressure in Wistar rat model of dexamethasone-induced elevated IOP assessed as change in intraocular pressure at 1 % w/v after 3 hrs by tonometry (reference value: 0%); type: functional; parameters: scale not given: the % may be the effect or the level left
Rattus norvegicus [15] = species: Rattus norvegicus; assay: Reduction in intraocular pressure in Wistar rat model of dexamethasone-induced elevated IOP assessed as change in intraocular pressure at 1 % w/v after 4 hrs by tonometry (reference value: 0%); type: functional; parameters: scale not given: the % may be the effect or the level left
Rattus norvegicus [16] = species: Rattus norvegicus; assay: Reduction in intraocular pressure in Wistar rat model of dexamethasone-induced elevated IOP assessed as change in intraocular pressure at 1 % w/v after 5 hrs by tonometry (reference value: 0%); type: functional; parameters: scale not given: the % may be the effect or the level left
Rattus norvegicus [17] = species: Rattus norvegicus; assay: Reduction in intraocular pressure in Wistar rat model of dexamethasone-induced elevated IOP assessed as change in intraocular pressure at 1 % w/v after 6 hrs by tonometry (reference value: 0%); type: functional; parameters: scale not given: the % may be the effect or the level left
Rattus norvegicus [18] = species: Rattus norvegicus; assay: Reduction in intraocular pressure in Wistar rat model of dexamethasone-induced elevated IOP assessed as change in intraocular pressure in contralateral eye at 1 % w/v after 0.5 hrs by tonometry (reference value: 0%); type: ADME, organism-based; parameters: scale not given: the % may be the effect or the level left; conditions: in vivo, topical_or_ocular
Rattus norvegicus [19] = species: Rattus norvegicus; assay: Reduction in intraocular pressure in Wistar rat model of dexamethasone-induced elevated IOP assessed as change in intraocular pressure in contralateral eye at 1 % w/v after 1 hr by tonometry (reference value: 0%); type: ADME, organism-based; parameters: scale not given: the % may be the effect or the level left; conditions: in vivo, topical_or_ocular
Rattus norvegicus [20] = species: Rattus norvegicus; assay: Reduction in intraocular pressure in Wistar rat model of dexamethasone-induced elevated IOP assessed as change in intraocular pressure in contralateral eye at 1 % w/v after 1.5 hrs by tonometry (reference value: 0%); type: ADME, organism-based; parameters: scale not given: the % may be the effect or the level left; conditions: in vivo
Rattus norvegicus [21] = species: Rattus norvegicus; assay: Reduction in intraocular pressure in Wistar rat model of dexamethasone-induced elevated IOP assessed as change in intraocular pressure in contralateral eye at 1 % w/v after 2 hrs by tonometry (reference value: 0%); type: ADME, organism-based; parameters: scale not given: the % may be the effect or the level left; conditions: in vivo
Rattus norvegicus [22] = species: Rattus norvegicus; assay: Reduction in intraocular pressure in Wistar rat model of dexamethasone-induced elevated IOP assessed as change in intraocular pressure in contralateral eye at 1 % w/v after 2.5 hrs by tonometry (reference value: 0%); type: ADME, organism-based; parameters: scale not given: the % may be the effect or the level left; conditions: in vivo
Rattus norvegicus [23] = species: Rattus norvegicus; assay: Reduction in intraocular pressure in Wistar rat model of dexamethasone-induced elevated IOP assessed as change in intraocular pressure in contralateral eye at 1 % w/v after 3 hrs by tonometry (reference value: 0%); type: ADME, organism-based; parameters: scale not given: the % may be the effect or the level left; conditions: in vivo
Rattus norvegicus [24] = species: Rattus norvegicus; assay: Reduction in intraocular pressure in Wistar rat model of dexamethasone-induced elevated IOP assessed as change in intraocular pressure in contralateral eye at 1 % w/v after 4 hrs by tonometry (reference value: 0%); type: ADME, organism-based; parameters: scale not given: the % may be the effect or the level left; conditions: in vivo
Rattus norvegicus [25] = species: Rattus norvegicus; assay: Reduction in intraocular pressure in Wistar rat model of dexamethasone-induced elevated IOP assessed as change in intraocular pressure in contralateral eye at 1 % w/v after 5 hrs by tonometry (reference value: 0%); type: ADME, organism-based; parameters: scale not given: the % may be the effect or the level left; conditions: in vivo
Rattus norvegicus [26] = species: Rattus norvegicus; assay: Reduction in intraocular pressure in Wistar rat model of dexamethasone-induced elevated IOP assessed as change in intraocular pressure in contralateral eye at 1 % w/v after 6 hrs by tonometry (reference value: 0%); type: ADME, organism-based; parameters: scale not given: the % may be the effect or the level left; conditions: in vivo
Rattus norvegicus [27] = species: Rattus norvegicus; assay: Reduction in intraocular pressure in Wistar rat model of dexamethasone-induced elevated IOP assessed as onset time for reduction in intraocular pressure at 1 % w/v by tonometry; type: functional
Rattus norvegicus [28] = species: Rattus norvegicus; assay: Reduction in intraocular pressure in Wistar rat model of dexamethasone-induced elevated IOP assessed as peak effect time for reduction in intraocular pressure at 1 % w/v by tonometry; type: functional, organism-based
Rattus norvegicus [29] = species: Rattus norvegicus; assay: Reduction in intraocular pressure in Wistar rat model of dexamethasone-induced elevated IOP assessed as reduction in intraocular pressure at peak effect time at 1 % w/v by tonometry; type: functional; parameters: scale not given: the % may be the effect or the level left

SMILES | logP at 24 h [1] | Activity [2] [%] | Activity [3] [%] | Activity [4] [%] | Activity [5] [%] | Activity [6] [%] | Activity [7] [%] | IC50 [8] [µg/mL] | Activity (Rattus norvegicus [9]) [%] | Activity (Rattus norvegicus [10]) [%] | Activity (Rattus norvegicus [11]) [%] | Activity (Rattus norvegicus [12]) [%] | Activity (Rattus norvegicus [13]) [%] | Activity (Rattus norvegicus [14]) [%] | Activity (Rattus norvegicus [15]) [%] | Activity (Rattus norvegicus [16]) [%] | Activity (Rattus norvegicus [17]) [%] | Activity (Rattus norvegicus [18]) [%] | Activity (Rattus norvegicus [19]) [%] | Activity (Rattus norvegicus [20]) [%] | other results
O=C(CN1CCN(c2ccccc2F)CC1)Nc1nc2ccccc2[nH]1 | 0.94 | 11.6 | 18.8 | 37.4 | 47.7 | 56.6 | 70.6 | 121.33 (≈ 343 µM) | 2.82 | 6.5 | 9.77 | 12.47 | 13.5 | 11.7 | 7.52 | 0.95 | 0.17 | 0.9 | 2.02 | 3.2 | Activity (Rattus norvegicus [21]): 4.07%; Activity (Rattus norvegicus [22]): 1.27%; Activity (Rattus norvegicus [23]): 0.87%; Activity (Rattus norvegicus [24]): 0%; Activity (Rattus norvegicus [25]): 0%; Activity (Rattus norvegicus [26]): 0%; Time (Rattus norvegicus [27]): 0.5 h; Tmax (Rattus norvegicus [28]): 2.5 h; Activity (Rattus norvegicus [29]): 46.61%
O=C(CN1CCN(c2ccccc2)CC1)Nc1nc2ccccc2[nH]1 | 1.29 | 4.62 | 11.5 | 24.1 | 32.2 | 40.6 | 62.1 | 165.52 (≈ 493 µM) | 2.55 | 4 | 7.75 | 11 | 13.5 | 12.18 | 7.77 | 1.33 | 0.27 | 1.97 | 3.25 | 4.12 | Activity (Rattus norvegicus [21]): 5%; Activity (Rattus norvegicus [22]): 5.65%; Activity (Rattus norvegicus [23]): 3.6%; Activity (Rattus norvegicus [24]): 1.55%; Activity (Rattus norvegicus [25]): 0%; Activity (Rattus norvegicus [26]): 0%; Time (Rattus norvegicus [27]): 0.5 h; Tmax (Rattus norvegicus [28]): 2.5 h; Activity (Rattus norvegicus [29]): 45.73%
COc1ccc(N2CCN(CC(=O)Nc3nc4ccccc4[nH]3)CC2)cc1 | 2.65 | 7.24 | 13.3 | 25.8 | 38.9 | 53.2 | 63.7 | 144.19 (≈ 395 µM) | 3.8 | 5.67 | 6.15 | 9.42 | 15.32 | 10.08 | 7 | 3.37 | 1.33 | 1.2 | 2.07 | 2.83 | Activity (Rattus norvegicus [21]): 3.57%; Activity (Rattus norvegicus [22]): 3.97%; Activity (Rattus norvegicus [23]): 2%; Activity (Rattus norvegicus [24]): 0.43%; Activity (Rattus norvegicus [25]): 0%; Activity (Rattus norvegicus [26]): 0%; Time (Rattus norvegicus [27]): 0.5 h; Tmax (Rattus norvegicus [28]): 2.5 h; Activity (Rattus norvegicus [29]): 46.92%
O=C(CN1CCN(CCc2ccccc2)CC1)Nc1nc2ccccc2[nH]1 | 1.89 | 8.11 | 13.5 | 22.3 | 38.1 | 51.8 | 62.9 | 148.39 (≈ 408 µM) | 2.53 | 5.52 | 8.97 | 10.17 | 11.95 | 7.1 | 3.76 | 0.83 | 0.4 | 1.23 | 2.07 | 2.9 | Activity (Rattus norvegicus [21]): 3.63%; Activity (Rattus norvegicus [22]): 2.43%; Activity (Rattus norvegicus [23]): 1.67%; Activity (Rattus norvegicus [24]): 0.83%; Activity (Rattus norvegicus [25]): 0.43%; Activity (Rattus norvegicus [26]): 0%; Time (Rattus norvegicus [27]): 0.5 h; Tmax (Rattus norvegicus [28]): 2 h; Activity (Rattus norvegicus [29]): 37.15%
